According to ChEMBL document CHEMBL3301472, “MMV Malaria Box HIV and cytotoxicity screening”:

Legend:
[1] = MMV: MTT Cytotoxicity Assay Day 7 pi of Assay #10 (NO washout), U87-CD4-CCR5 cells, % cell death @ 5mM compound; assay type: toxicity, cell-based; details: human, u87-cd4-ccr5, 5000 µM
[2] = MMV: MTT Cytotoxicity Assay Day 3 pi, U87-CD4-CXCR4 cells, % cell death @ 5mM compound; assay type: toxicity, cell-based; details: human, u87-cd4-cxcr4, 5000 µM
[3] = MMV: MTT Cytotoxicity Assay Day 3 pi, U87-CD4-CCR5 cells, % cell death @ 5mM compound; assay type: toxicity, cell-based; details: human, u87-cd4-ccr5, 5000 µM
[4] = MMV: MTT Cytotoxicity Assay Day 7 pi of Assay #11 (NO washout), U87-CD4-CXCR4 cells, % cell death @ 5mM compound; assay type: toxicity, cell-based; details: human, u87-cd4-cxcr4, 5000 µM
[5] = MMV: MTT Cytotoxicity Assay Day 7 pi of Assay #6 (compound washed out Day 1 pi), U87-CD4-CCR5 cells, % cell death @ 5mM compound; assay type: toxicity, cell-based; details: human, u87-cd4-ccr5, 5000 µM
[6] = MMV: MTT Cytotoxicity Assay Day 7 pi of Assay #7 (compound washed out Day 1 pi), U87-CD4-CXCR4 cells, % cell death @ 5mM compound; assay type: toxicity, cell-based; details: human, u87-cd4-cxcr4, 5000 µM
[7] = system: Human immunodeficiency virus 1; test: MMV: HIV JRFL CCR5-tropic replication-competent virus, virus & compound washed out Day 1 pi, P24 ELISA Day 7 pi, U87-CD4-CCR5, % inhibition at 5 mM compound; assay type: functional; set-up: dose or concentration left out as unconfirmed; details: Human immunodeficiency virus 1, JR-FL

| Structure (SMILES) | % Cell Death [1] | % Cell Death [2] | % Cell Death [3] | % Cell Death [4] | % Cell Death [5] | % Cell Death [6] | inhibition [7] |
| --- | --- | --- | --- | --- | --- | --- | --- |
| Cc1cc(Nc2cccc(F)c2)nc(NCc2ccccc2)n1 | 20 | 33 | 21 | -41 | 6 | -12 | 5% |
| CCCCCCc1cc2cc(-c3nc4ccccc4[nH]3)c(=Nc3ccccc3C)oc2cc1O | 44 | 25 | 31 | 53 | 15 | -2 | 4% |
| CCCOCc1cc(CN2CCN(c3cccc(Cl)c3)CC2)c(O)c2ncccc12 | 15 | 31 | 24 | -57 | -8 | -7 | 9% |
| COc1ccc(-c2nc(N3CCN(C(=O)C4CCCCC4)CC3)c3c4c(sc3n2)CCCC4)cc1 | 113 | 46 | 2 | 104 | -3 | -26 | 5% |
| CCCCOc1ccc(C(=O)Nc2cc(C)on2)cc1 | 4 | 31 | 54 | 33 | -17 | -14 |  |
| Oc1c(C(Nc2ccccn2)c2cccc(Oc3ccccc3)c2)ccc2cccnc12 (configuration not stated) | 139 | 101 | 113 | 106 | 91 | 97 |  |
| CC(C)(C)c1ccc(C(=O)Nc2nc3ccccc3s2)cc1 | 24 | 12 | 1 | -30 | 20 | -23 |  |
| Cn1c(=O)c2cc(C(=O)NCCCN3CCCCCC3)sc2c2ccccc21 | 23 | 29 | 4 | 29 | 35 | -51 |  |
| Cc1ccc(-c2cc3c(SCC(=O)Nc4cc(C(F)(F)F)ccc4Cl)nccn3n2)cc1 | 24 | 35 | 18 | 2 | 12 | -26 |  |
| O=C1c2ccccc2C2=Nc3ccccc3SC(c3cccc(F)c3)C12 (configuration not stated) | 7 | 20 | 11 | 4 | -3 | 28 |  |
| CCN(CC)CCCNc1nc(-c2ccc(Cl)cc2)nc2ccccc12 | 18 | 13 | -18 | -10 | 13 | 18 |  |
| O=c1cc(NC2CCN(CCCc3ccccc3)CC2)c2cc(Cl)ccc2o1 | 31 | 19 | 16 | -41 | -6 | 37 |  |
| COc1cc2c(cc1OC)C1=NNC(=O)C1=NC(C)(C)C2 | 106 | 100 | 107 | 98 | 101 | 95 |  |
| c1ccc(/C2=N/c3ccccc3/N=C(/c3ccccc3)c3ccccc32)cc1 | 16 | 28 | -3 | 7 | 0 | -11 |  |
| COc1cc(-c2nc(-c3ccccc3)c(-c3ccccc3)[nH]2)cc(OC)c1O | 120 | 52 | 104 | 105 | 88 | 84 |  |
| CN(C)c1ccc(C=Cc2nc(=O)c3ccccc3o2)cc1 | 46 | 38 | 39 | 20 | -14 | 0 |  |
| c1ccc(Cn2c(N=Nc3c(Nc4ccccc4)ccc4ccccc34)nc3ccccc32)cc1 | 83 | 97 | 92 | 101 | 95 | 99 |  |
| Cc1[nH]c(-c2ccc(F)cc2)cc1C(=O)NC1CCN(Cc2ccccc2)CC1 | 44 | 41 | 65 | 29 | 52 | 6 |  |
| CCN(CC)CCNc1ccnc2cc(Cl)ccc12 | 17 | 36 | 4 | -13 | 21 | -5 |  |

| Structure (SMILES) | % Cell Death [1] | % Cell Death [2] | % Cell Death [3] | % Cell Death [4] | % Cell Death [5] | % Cell Death [6] | inhibition [7] |
| --- | --- | --- | --- | --- | --- | --- | --- |
| CCOC(=O)C1=CN(C)C=C(C(=O)OCC)C1c1cc(Br)c(OCC)c(OC)c1 | 103 | 32 | 80 | 6 | 37 | 99 |  |
| Cl.OC(CNCc1ccccc1)Cn1c2ccccc2c2ccccc21 (configuration not stated) | 11 | 18 | 19 | -23 | 10 | -9 |  |
| O=C(Nc1ccc(C23CC4CC(CC(c5ccccc5)(C4)C2)C3)cc1)c1cccs1 | 77 | 95 | 107 | 109 | 109 | 98 |  |
| Cc1ccc(F)cc1NC(=O)c1cc(Cl)ccc1Nc1ccccc1 | 28 | 25 | 7 | -27 | 8 | -2 |  |
| CCOC(=O)C1CCN(C(=O)CN2C(=O)c3ccccc3C2c2c[nH]c3ccccc23)CC1 (configuration not stated) | 109 | 35 | 107 | 112 | 52 | 39 |  |
| COc1cccc(Nc2nc(NCCO)c3ccccc3n2)c1.Cl | 3 | -1 | 15 | 46 | 44 | -16 |  |
| Cc1cc(Nc2ccc3ccccc3c2)n2ncnc2n1 | -3 | 38 | 39 | -43 | 12 | -16 |  |
| CCCN(CCC)CCCNC(=O)c1cc2c(-c3ccc(OC)c(OC)c3)nn(C)c2s1 | 100 | 9 | 51 | 103 | 59 | -24 |  |
| O=C1c2ccccc2-c2nnc(-c3ccc(Br)cc3)cc21 | 24 | 16 | 2 | -24 | 1 | 4 |  |
| CC1CCN(Cc2c(O)ccc3cc(-c4nc5ccccc5s4)c(=O)oc23)CC1 | 30 | 33 | 12 | 9 | 16 | -13 |  |
| O=C(Nc1ccc(-c2nc3cc4ccccc4cc3[nH]2)cc1)c1cccc(Br)c1 | 7 | 42 | 16 | -33 | 13 | -24 |  |
| Cc1cc(Nc2ccc(OCc3ccccc3)cc2)nc2cc(O)ccc12 | -10 | -46 | 23 | -7 | 18 | 6 |  |
| COc1ccc(CNC(=O)c2cc3c(=O)n4ccccc4nc3n(CCc3ccccc3)c2=N)cc1 | 0 | 37 | 14 | 49 | -17 | -14 |  |
| CCOC(=O)c1ccc2[nH]c(-c3ccccc3)cc(=O)c2c1 | 129 | 99 | 104 | 99 | 98 | 96 |  |
| CCN(Cc1ccccc1)C1CCN(Cc2cc(Br)ccc2O)CC1.O=C(O)C(=O)O | 20 | 27 | -5 | -25 | 6 | 0 |  |
| CCN1CCCC1CNc1[nH]cnc2c3cc(Cl)ccc3nc1-2 (configuration not stated) | 40 | 23 | 45 | 14 | 26 | -7 |  |
| CCOc1ccc(-c2nonc2NC(=O)c2cccc(C)c2)cc1OCC | 19 | 13 | -8 | -48 | -8 | -14 |  |
| Cc1cc(NC(=O)c2cccc(C(F)(F)F)c2)n(-c2nc(-c3ccc4c(c3)OCO4)cs2)n1 | 9 | 17 | 40 | -57 | 16 | -18 |  |
| COc1cc(-c2nc(-c3ccc(Sc4ccccc4)cc3)c(-c3ccccc3)[nH]2)cc(OC)c1O | 33 | 29 | 18 | -41 | 5 | -13 |  |
